The source made the active and inactive calls. The rule behind the calls is not given here.
Columns and labels:
[1] = test system: Lipid bilayer; assay: Binding affinity to POPG:POPC:lysyl-DOPG:7MC-POPE unilamellar lipid vesicle with <30 mol% of lysyl-DOPG at 0.5 uM by FRET assay
[2] = test system: Lipid bilayer; assay: Binding affinity to POPG:POPC:lysyl-DOPG:7MC-POPE unilamellar lipid vesicle with >30 mol% of lysyl-DOPG at 0.5 uM by FRET assay

H-ALYKKWKKKLLKSLKRLG-OH
Activity [1]: Active
Activity [2]: inactive
